These compounds were tested against GABA-A receptor; anion channel (assay: Inhibition of [3H]EBOB binding at GABA-gated chloride channel NCB site in bovine brain membranes).
Type: cell membranes, Bos taurus

`COC(=O)C#Cc1ccc(C2SCC(C(C)(C)C)CS2)cc1` (centres undefined) and `CC(C)(C)C1CSC(c2ccc(C#CC(=O)O)cc2)SC1` (centres undefined) are within 1.5-fold of each other in IC50: 9 nM for the first, 7 nM for the second.

First: CCCC#Cc1ccc(C2SCC(C(C)(C)C)CS2)cc1 (centres undefined)
Second: CC(C)(C)C1CSC(c2ccc(C#CCCO)cc2)SC1 (centres undefined)
The IC50 of the first is 17-fold higher: 6700 nM for the first, 400 nM for the second. The second is the more potent here.

Compared with `CCC#Cc1ccc(C2SCC(C(C)(C)C)CS2)cc1` (centres undefined), `CC(C)(C)C1CSC(c2ccc(C#CCO)cc2)SC1` (centres undefined) is 9.1-fold lower in IC50: 690 nM for the first, 76 nM for the second.

Going from `CC#Cc1ccc(C2SCC(C(C)(C)C)CS2)cc1` (centres undefined) to `CC(O)C#Cc1ccc(C2SCC(C(C)(C)C)CS2)cc1` (centres undefined), the IC50 rises from 35 nM to 3100 nM (89-fold). The first is the more potent here.

Going from `CCOC(=O)CC#Cc1ccc(C2SCC(C(C)(C)C)CS2)cc1` (centres undefined) to `CC(C)(C)C1CSC(c2ccc(C#CCC(=O)O)cc2)SC1` (centres undefined), the IC50 falls from 460 nM to 23 nM (20-fold).

`CC(C)(C)C1CSC(c2ccc(C#CC(=O)C=[N+]=[N-])cc2)SC1` (centres undefined) and `CC(C)(C)C1CSC(c2ccc(C#CCCC(=O)C=[N+]=[N-])cc2)SC1` (centres undefined) are within 1.5-fold of each other in IC50: 690 nM for the first, 830 nM for the second.

Going from `COC(=O)CCC#Cc1ccc(C2SCC(C(C)(C)C)CS2)cc1` (centres undefined) to `CC(C)(C)C1CSC(c2ccc(C#CCCC(=O)O)cc2)SC1` (centres undefined), the IC50 falls from 17 nM to 5 nM (3.4-fold).

Going from `CC(C)(C)C1CSC(c2ccc(C#CCCCO)cc2)SC1` (centres undefined) to `CC(C)(C)C1CSC(c2ccc(C#CCCP(=O)(O)O)cc2)SC1` (centres undefined), the IC50 falls from 410 nM to 10 nM (41-fold).

First: C#Cc1ccc(C2SCC(C(C)(C)C)CS2)cc1 (centres undefined)
Second: CC(C)(O)C#Cc1ccc(C2SCC(C(C)(C)C)CS2)cc1 (centres undefined)
The IC50 of the first is lower: 21 nM for the first, > 10000 nM for the second.

Compound `CCOP(=O)(CCC#Cc1ccc(C2SCC(C(C)(C)C)CS2)cc1)OCC` (centres undefined) has an IC50 of 3000 nM.

From ChEMBL document CHEMBL1127158, “1,3-dithianes with acid functionalities: potent inhibitors and candidate affinity probes for the gaba-gated chloride channel” (Bioorg Med Chem Lett, 1993)
